The test system of data set [1] is P. falciparum K1. Description: SYBR Green I-based fluorescence in vitro growth inhibition assay. The format is cell-based, Plasmodium falciparum. The note with it: for IC50: Plasmodium falciparum, read-out: IC50 P. falciparum K1. The method, then:
(§1) P. falciparum strains 3D7 and K1 were cultivated in 2% washed human O-positive erythrocytes (supplied by Japanese Red Cross Society, Hokkaido, Japan) using a multi-gas incubator (37 °C, 5% CO2 and 5% O2).
(§2) Briefly, test compounds were diluted in complete medium to eight desired concentrations (2-fold serial dilution). […] Next, 50 μL of synchronous parasites at 0.5% parasitemia and 2% hematocrit was seeded in a 96-well plate containing 50 μL of test compounds. The 96-well plate was incubated for 72 h at 37 °C, 5% CO2 and 5% O2. Next, 100 μL of lysis buffer containing 0.02% (v/v) SYBR Green I was added to each well and mixed and then the 96-well plate was incubated at room temperature for 2 h in the dark. […] Erythrocytes treated with 1% DMSO were used as a negative control and wells containing only test compounds and erythrocytes were used to correct background signals. In at least three independent trials, the inhibition assay was performed in quadruplicate for each concentration.

The test system of data set [2] is P. falciparum 3D7. The description is as above. It is filed as cell-based, Plasmodium falciparum. The conditions noted are these: for IC50: Plasmodium falciparum, read-out: IC50 P. falciparum 3D7. The method, then: as §1, §2
Data set [3] can be described thus: Erythrocyte hemolysis assay. The note with it: human, 3 h at 37 °C, mean ± SD, read-out: RBC Hemolysis Rate (%) at 100 μM. It is filed as cell-based.
Procedure: An erythrocyte hemolysis assay was performed as previously described [21]. Briefly, 100 μL of each compound (final concentration, 100 μM) in 1× phosphate-buffered saline (PBS) was seeded in a 96-well plate and 100 μL of a 3% erythrocyte suspension in PBS was added. The plate was incubated for 3 h at 37 °C, 5% CO2 and 5% O2 and then centrifuged at 1300× g for 5 min. Subsequently, 100 μL of the supernatant of each mixture was transferred to a new 96-well plate and the absorbance was recorded at 540 nm. […] The erythrocyte hemolysis rate was calculated using the following formula: hemolysis rate = ([Asample − Anegative control]/[Apositive control − Anegative control] × 100), where A is absorbance [21]. The experiments were performed in triplicate and repeated three times independently.
The test system of data set [4] is patients (with advanced carcinoma). More on the design: method as in PMID 5928140. The conditions noted are these: daily doses; after 13 days (total dose 0.24 mg/kg) and 15 days (total dose 0.15 mg/kg); cited from earlier work.
A short description of data set [5]: In vitro cytotoxicity, cell viability assay (CCK-8). The note with it: human, human foreskin fibroblasts (HFFs).
Procedure: A cell viability assay was used to evaluate the cytotoxic action of Sm as described previously [18]. Briefly, a 100 μL cell suspension was seeded in a 96-well plate at a concentration of 1 × 10^5 cells/mL in DMEM containing 10% FBS and incubated for 48 h at 37 °C and 5% CO2. Next, 2-fold dilutions (total of eight concentrations) of test compounds in DMEM were added in quadruplicate to each well and incubated for an additional 72 h.
Data were analyzed using GraphPad Prism 8 (GraphPad Software, Inc., La Jolla, CA, USA). IC50 or CC50 values were calculated from three independent experiments using a non-linear regression fit to logarithm concentration value of the compound versus inhibition percentage of parasite or cell growth, respectively.
In data set [6] the test system is P. berghei ANKA. In words: Complicated rodent malaria model, survival (Peters' 4-day test or 7-day regimen). The conditions noted are these: up to 25 dpi. The format is in vivo, C57BL/6 J mice. On the procedure: Male C57BL/6 J mice (8 weeks old with body weight of 20–25 g; six mice per group) were purchased from Japan CLEA (Tokyo, Japan). The mice were allowed free access to water and food (CLEA Rodent Diet CE-2; Japan CLEA, Tokyo, Japan). The room temperature (24 °C), relative humidity (50%) and lighting (light from 8 a.m. to 8 p.m.) were adjusted and controlled. P. yoelii 17XNL and P. berghei ANKA were recovered from frozen packed erythrocyte stocks via passage in mice following intraperitoneal (i.p.) injection. Challenge experiments were performed with i.p. injections of 1 × 10^7 fresh infected erythrocytes from donor mice (designated as 0 days post-infection (dpi)). Approximately 2 h after the injection, 2 μL of blood was collected from the tip of the mice’s tail and the parasitemia levels were checked using Giemsa-stained thin blood smears. When the parasitemia level reached 1%, the infected mice were intraperitoneally treated with vehicle (1 × PBS) or Sm at a dose of 100 or 300 μg/kg (modified from reported IC50 in Ref. [22]) once daily for 7 days (0–6 dpi; modified Peters’ test) for P. yoelii 17XNL and 300 μg/kg once daily for 4 (0–3 dpi; Peters’ 4-day test) or 7 days (0–6 dpi, [23]) for P. berghei ANKA. The survival and clinical signs of mice were monitored daily after infection. […]

Data set [7] has as its system mice. The conditions noted are these: i.p. administration; cited from earlier work.
For data set [8], the system named is P. falciparum 3D7. Description: Microscopic analysis of parasitemia and morphology (Giemsa-stained thin blood smears). It is filed as cell-based, Plasmodium falciparum. The method, then: The parasites were tightly synchronized using a two-step sorbitol treatment protocol and used at the ring stage with 0.5% parasitemia and 2% hematocrit. Sm (50 and 10 nM) in complete medium and 1% DMSO in complete medium were used as the treated and untreated groups, respectively, in this assay. Subsequently, the Giemsa-stained thin blood smears of each treatment group were prepared after 1, 24, 48, or 72 h of incubation. After 72 h, incubation was continued after changing the medium in either the presence (unwashed group) or absence (washed group) of Sm for up to 144 h. Subsequently, the Giemsa-stained thin blood smears of each treatment group were prepared at 96, 120 and 144 h. The blood smears were observed using a BZ-900 all-in-one microscope (Keyence BioRevo, Tokyo, Japan). The parasitemia levels were determined by enumerating the number of infected erythrocytes in relation to uninfected erythrocytes (a minimum of 500 cells were counted). The assay was performed in triplicate for each concentration and time point.

Data set [9] deals with P. yoelii 17XNL. In words: Uncomplicated rodent malaria model, 7-day treatment (modified Peters' test). The format is in vivo, C57BL/6 J mice. On the procedure:
Male C57BL/6 J mice (8 weeks old with body weight of 20–25 g; six mice per group) were purchased from Japan CLEA (Tokyo, Japan). The mice were allowed free access to water and food (CLEA Rodent Diet CE-2; Japan CLEA, Tokyo, Japan). The room temperature (24 °C), relative humidity (50%) and lighting (light from 8 a.m. to 8 p.m.) were adjusted and controlled. P. yoelii 17XNL and P. berghei ANKA were recovered from frozen packed erythrocyte stocks via passage in mice following intraperitoneal (i.p.) injection. Challenge experiments were performed with i.p. injections of 1 × 10^7 fresh infected erythrocytes from donor mice (designated as 0 days post-infection (dpi)). Approximately 2 h after the injection, 2 μL of blood was collected from the tip of the mice’s tail and the parasitemia levels were checked using Giemsa-stained thin blood smears. When the parasitemia level reached 1%, the infected mice were intraperitoneally treated with vehicle (1 × PBS) or Sm at a dose of 100 or 300 μg/kg (modified from reported IC50 in Ref. [22]) once daily for 7 days (0–6 dpi; modified Peters’ test) for P. yoelii 17XNL and 300 μg/kg once daily for 4 (0–3 dpi; Peters’ 4-day test) or 7 days (0–6 dpi, [23]) for P. berghei ANKA. The survival and clinical signs of mice were monitored daily after infection. Mice with high clinical signs (arched back, immobility, >20% body weight loss and pain sign) were euthanized immediately. Parasitemia in P. yoelii 17XNL-infected mice was observed daily using Giemsa-stained thin blood smears (up to 30 dpi).
A p-value of <0.05 was considered statistically significant and is shown as an asterisk or a symbol, defined in each table/figure legend together with the name of the test used.

Data set [10] has as its system retinas of animals. Also noted: method as in PMID 3310108. The note with it: animals treated with toxic doses; cited from earlier work.

Where two headings read alike, the source gives them in different places.

`C[C@@H]1CC[C@H]2[C@@H](C)C(=O)O[C@@H]3O[C@@]4(C)CC[C@@H]1[C@]32OO4` [Artemisinin, artemisinin, reference compound]: the IC50 (commonly the concentration that gives 50% inhibition) stood at 19.9 ± 1.51 nM in data set [1] (K1, 72 h exposure, mean ± SD of three independent experiments) and 13.2 ± 2.66 nM in data set [2] (3D7, 72 h exposure, mean ± SD of three independent experiments).

In the case of `CCN(CC)CCCC(C)Nc1ccnc2cc(Cl)ccc12` (stereo not drawn) [Chloroquine, Chloroquine diphosphate, reference compound], the IC50 in data set [1] (K1, 72 h) came out at 740 ± 95.7 nM; in data set [2] (3D7, 72 h) it was 26.2 ± 3.66 nM.

`CSC[S@+]([O-])C[C@H](CO)NC(=O)/C=C/c1c(C)[nH]c(=O)[nH]c1=O` [Sparsomycin, sparsomycin]: in data set [3], the hemolysis at 3 h, 100 µM came out at 1.04 ± 0.23%. For the same compound, in data set [4], the “Patients developing ring scotoma (Sm-related retinopathy)” value was “two out of five patients”. Besides, the CC50 (usually the concentration at which the toxic effect on the cells reaches its halfway point) at 72 h in [5] was 1140 ± 30 nM. The Prolongation of survival is listed as 33.33% in data set [6] (300 μg/kg i.p. once daily for 4 days, significant (p < 0.05)) and 33.33% in data set [6] (300 μg/kg i.p. once daily for 7 days, statistically insignificant (p > 0.05)). In addition, the IC50 in data set [1] (K1, 72 h) is 25.4 ± 8.15 nM; in data set [2] (3D7, 72 h) it was 12.1 ± 4.41 nM. Further, the “Resistance Index” value in data set [1] (ratio between the IC50 values of P. falciparum K1 and 3D7) is on record as 2.1. For the same compound, the “SI for P. falciparum K1” value in [1] (selectivity index, ratio between IC50 (K1) and CC50 (HFF)) is 44.83. The “SI for P. falciparum 3D7” value in data set [2] (selectivity index, ratio between IC50 (3D7) and CC50 (HFF)) worked out at 94.45. Further, the LD50 in data set [7] is on record as 170 to 380 μg/kg per injection. For the same compound, the Parasite morphology result in data set [8] (50 nM for 72 h) was “induced morphological alterations, including shrinkage”. Further, the “Parasitemia levels along the incubation period” value in data set [8] (10 or 50 nM, 1–72 h) is on record as “not increased”. In addition, the “Parasite life cycle stage under exposure” value in [8] (10 or 50 nM, 1–72 h of incubation, ring-stage synchronized) was “blocked in the ring stage”. Further, the “Parasite growth after removal of compound (washed group)” value in [8] (72 h exposure to 10 or 50 nM, then further 72 h without compound (up to 144 h)) is “not restored”. The “Parasitemia levels versus control” value in data set [9] (100 μg/kg i.p. once daily for 7 days) was “did not significantly alter”. In data set [9] (300 μg/kg i.p. once daily for 7 days), the Parasitemia versus control result is “significantly reduced”. For the same compound, in data set [9] (300 μg/kg i.p. once daily for 7 days, peak at 11 dpi, control 40.13% (12 dpi)), the Parasitemia peak worked out at 18.85%. Further, the Mortality result in data set [9] (100 or 300 μg/kg i.p. once daily for 7 days, up to 30 dpi) is “No mortality”. Also, in data set [10], the “Pathological changes in the retinas” value is given as “no observable pathological changes”.
